Assay results reported in US10537610B1, “Peptide for inhibition of cancer” (priority 2018, dated 2020).

What was measured:
[1] = tested on: JAM-A (CD321); experiment: Flow cytometry of JAM-A (CD321) on the surface of HMEC-1 cells; format: cell-based, human; conditions: Tβ4 200 nM, TGF-β1 10 ng/ml or TNF-α 10 ng/mL, 24 hours
Excerpt: For the detection of JAM-A surface expression the cells were labeled with FITC anti-human CD321 (F11R) Mouse IgG1 Antibody (BioLegend, San Diego, Calif., USA) or with the FITC Mouse IgG1 Isotype Control Antibody (BioLegend) for the negative control. Labeled cells were washed to remove unbound antibodies, harvested with ice cold EDTA/PBS, fixed with BD CellFix (Becton Dickinson. Franklin Lakes, N.J., USA) and subsequently analyzed by FACS Canto II flow cytometer (Becton Dickinson). Upon excitation at 488 nm with an argon laser the emission of the fluorescence was recorded through selective band pass filter at 517 nm. Data were recorded with DIVA software, version 6.0 (Becton Dickinson) and subsequently analyzed using FCSalyzer software, version 0.9.14-alpha (https://sourceforge.net/projects/fcsalyzer/).

[2] = tested on: JAM-A mRNA; experiment: RT-PCR of JAM-A mRNA in HMEC-1 cells; format: cell-based, human; conditions: Tβ4 200 nM or TGF-β1 10 ng/mL
[3] = tested on: JAM-A; experiment: Western blot of JAM-A protein in HMEC-1 cells; format: cell-based, human; conditions: Tβ4 200 nM or TGF-β1 10 ng/mL, 24-hours incubation
Protocol: The cells were lysed with lysis buffer (1% Triton X-100 and 0.1% SDS in PBS) supplemented with Halt Protease Inhibitor Cocktail (Thermo Scientific, Waltham, Mass., USA). For the equalization between the samples before the semi-quantitative analyses the protein content of lysates was determined with the BCA Protein Assay Kit according to the manufacturer's protocol (Thermo Scientific). Cell lysate aliquots at a protein content of 50 μg per sample were boiled with 5× concentrated loading buffer (final concentrations: 50 mM Tris-HCl, pH 6.8, 8% glycerol, 2% SDS, 5% β-mercaptoethanol, 0.002% bromophenol blue), separated under reducing conditions on 4-20% gradient SDS-PAGE gels (Bio-Rad) and electroblotted (120 min, 200 mA, 4° C.) onto polyvinylidene difluoride (PVDF) membranes (Bio-Rad). The membranes were washed with Tris-buffered saline (TBS) and blocked for 2 hours with TBS containing 5% nonfat dry milk at room temperature. Then, the membranes were incubated overnight at 4° C. with an appropriate amount of primary antibody diluted in TBS containing 0.05% Tween 20 (TBST). The following primary antibodies were used: monoclonal rabbit anti-JAM-A (Abcam, Cambridge, UK) at a dilution of 1:500 and monoclonal mouse anti-GAPDH (R&D Systems, Minneapolis, Minn., USA) at a dilution of 1:1000. The membranes were washed several times with TBST and incubated for 1 hour at room temperature with the corresponding polyclonal anti-rabbit and anti-mouse HRP-conjugated secondary antibodies (Santa Cruz Biotechnology, Dallas, Tex., USA) at a 1:5000 dilution in TBST. Following the subsequent washes with TBST the membranes were further processed for chemiluminescent detection using Westar TiC ECL Substrate (Cyanagen, Bologna, Italy) and the images were documented by ChemiDoc MP Imager (Bio-Rad).

[4] = tested on: soluble JAM-A; experiment: ELISA of JAM-A antigen in plasma, murine 4T1 breast cancer model; format: in vivo, mouse; conditions: 4T1 tumor-bearing BALB/c mice and control littermates; Tβ4 15 μg/kg or TGF-β1 5 μg/kg i.p., 21 days
Protocol: All in vivo experiments were carried on female BALB/c mice aged 8 to 12 weeks purchased from Animal House of Institute of Biology, University of Bialystok (Bialystok, Poland). The mice were housed under standard conditions at the Animal House of the Medical University of Lodz (Lodz, Poland). All animal procedures and protocols were conducted in accordance with the Guide for the Care and Use of Laboratory Animals of the National Animal Care Committee and were approved by Local Ethical Committee for Animal Research in Lodz (license number 9/LB51/2017 from Jun. 2, 2017). All efforts were made to minimize animal suffering.
Murine 4T1 cells were purchased from the American Type Culture Collection (ATCC, Manassas, Va., USA). The cells were maintained in RPMI-1640 (ATCC) with 10/o fetal bovine serum (FBS) and cultured in tissue culture flasks to 80% confluence. […]
The unbound biotinylated antibody was washed away and HRP-conjugated streptavidin was added to the wells. […] Regarding the both protocols, the enzyme-substrate (HRP-TMB) reaction was terminated by the addition of a sulfuric acid solution and the color change was measured spectrophotometrically at a wavelenght of 450 nm using the Wallac 1420 VICTOR2 Multilabel Counter (PerkinElmer). The concentration of target antigen in the samples was determined by comparing the optical density of the samples to the standard curve.

Substance | JAM-A (CD321) level on the cell surface [1] | JAM-A expression on mRNA level [2] | level of JAM-A protein [3] | JAM-A level in plasma [4]
tumor necrosis factor-α [TNF-α] | triggered a minor increase of CD321 expression |  |  | 
Transforming growth factor-β1 [TGF-β1] | slightly decreased JAM-A level on the membrane of HMEC-1 cells | no observed changes of JAM-A expression on mRNA level | evidently reduced the level of JAM-A protein | decreased the JAM-A plasma level
